Laboratory results as given in patent US8057792B2, “Use of an antibody that blocks TNF-alpha activity for treating a nerve disorder mediated by nucleus pulposus” (Sciaticon AB, priority 1998, dated 2011).

What was measured:
[1] = tested on: pigs with autologous nucleus pulposus placed onto the sacrococcygeal cauda equina; assay: Series-3: nerve root conduction velocity 7 days after nucleus pulposus application, systemic TNF inhibitors; type: in vivo, pig; conditions: for Effect on nucleus pulposus induced nerve injury: 7 days, systemic treatment; for NCV (m/s +/− SD): pig, 7 days after NP application, infliximab 100 mg i.v. preoperatively, etanercept 12.5 mg s.c. twice
Description: Series-3: Thirteen pigs had autologous nucleus pulposus placed onto their sacrococcygeal cauda equina similar to series-2. Five pigs (body weight 25 kg) received REMICADE® (infliximab) 100 mg i.v. preoperatively, and 8 pigs received ENBREL® (etanercept) 12.5 mg s.c. preoperatively and additionally 12.5 mg s.c. three days after the operation. Seven days after the nucleus pulposus-application the nerve root conduction velocity was determined over the application zone by local electrical stimulation according to series-2. Thirteen pigs had autologous nucleus pulposus placed onto their sacrococcygeal cauda equina similar to series-2. Five pigs (bodyweight 25 kg) received the human/murine monoclonal antibody, REMICADE® (infliximab, […]) 100 mg i.v. preoperatively, and 8 pigs received ENBREL® (etanercept, Centocor B.V., Leiden, the Netherlands) 12.5 mg s.c. preoperatively and additionally 12.5 mg s.c. three days after the operation. Seven days after the nucleus pulposus-application the nerve root conduction velocity was determined over the application zone by local electrical stimulation according to series-2. […] No non-treated animals were included in the series-3 due to the pre-existing knowledge of nerve conduction velocity after seven days of either nucleus pulposus or fat (control) application. The statistical difference between the groups, infliximab, and etanercept, nucleus pulposus without treatment (positive control from previous data) and application of retroperitoneal fat (negative control from previous data) was assessed by using ANOVA and Fisher's PLSD at 5%.

[2] = tested on: nucleus pulposus-induced nerve root injury; conditions: previous publications; cited from earlier work
[3] = tested on: pigs with autologous nucleus pulposus applied to the sacrococcygeal cauda equina; assay: Example 6: nerve conduction velocity 3 days after application of nucleus pulposus mixed with inhibitors; type: in vivo; conditions: pig; inhibitor mixed with NP before application (100 µg antibody each, 2 mg doxycycline)
Description: Fourteen pigs, (body weight 25-30 kg) received an intramuscular injection of 20 mg/kg body weight of KETALAR® (ketamine 50 mg/ml, Parke-Davis, Morris Plains, N.J.) and an intravenous injection of 4 mg/kg body weight of HYPNODIL® (methomidate chloride 50 mg/ml, AB Leo, Helsingborg, Sweden) and 0.1 mg/kg body weight of STRESNIL® (azaperon 2 mg/ml, Janssen Pharmaceutica, Beerse, Belgium). Anesthesia was maintained by additional intravenous injections of 2 mg/kg body weight of HYPNODIL® and 0.05 mg/kg body weight of STRESNIL®. The pigs also received an intravenous injection of 0.1 mg/kg of STESOLID NOVUM® (Diazepam, Dumex, Helsingborg) after surgery.
Nucleus pulposus was harvested from the 5th lumbar disc through a retroperitoneal approach. […]
Three days after the application, the pigs were reanaesthetized by an intramuscular injection of 20 mg/kg body weight of KETALAR® and an intravenous injection of 35 mg/kg body weight of PENTOTHAL® (Thiopental sodium, Abbott lab, Chicago, Ill.). […] Local tissue temperature was continuously monitored and maintained at 37.538.0. degree. […]
The person performing the neurophysiologic analyzes was unaware of the experimental protocol for the individual animal, and after finishing the complete study the data were arranged in the three experimental groups and statistical differences between the groups were assessed by Student's t-test. […]

infliximab [REMICADE ®]
Effect on nucleus pulposus induced nerve injury [1]: blocked the nucleus pulposus induced nerve injury efficiently
NCV (m/s +/− SD) [1]: 79 +/− 15 m/s

cyclosporin A
Block of nucleus pulposus-related effects [2]: blocked efficiently

etanercept [ENBREL ®]
Effect on nucleus pulposus induced nerve injury [1]: blocked the nucleus pulposus induced nerve injury efficiently
NCV (m/s +/− SD) [1]: 78 +/− 14 m/s

CCN(CC)CC(=O)Nc1c(C)cccc1C [lidocaine]
Block of nucleus pulposus-related effects [2]: slightly less efficiently

COc1ccc2c(c1)c(CC(=O)O)c(C)n2C(=O)c1ccc(Cl)cc1 [indomethacin]
Block of nucleus pulposus-related effects [2]: slightly less efficiently

C[C@H]1c2cccc(O)c2C(=O)C2=C(O)[C@]3(O)C(=O)C(C(N)=O)=C(O)[C@@H](N(C)C)[C@@H]3[C@@H](O)[C@@H]21 [Doxycycline, doxycycline]
Nerve conduction velocity (m/s) 3 days after application [3]: 53 +/− 22 m/s
